The source of these data is patent US9271960B2, “Tetrahydrocarbazoles as active agents for inhibiting VEGF production by translational control” (PTC Therapeutics, Inc., priority 2004, dated 2016).

Counter-ions that a name gives are not always drawn.

The test system of the first assay is VEGF. As to the kind of experiment: Hypoxia-inducible endogenous VEGF expression ELISA in HeLa cells. It is filed as cell-based. The settings on record: Homo sapiens, HeLa, compounds 1-155, hypoxic conditions (1% O2), VEGF protein by ELISA, read-out: ELISA Activity. A digest of the protocol:
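HeLa cells held 24–48 h in hypoxia (1% O2) with a concentration series of compound; VEGF secreted into media quantified by ELISA against a standard curve. Parallel Cell Titer Glo viability under identical conditions gives CC50; EC50 from percent-inhibition curves.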
Background: ELISA stands for enzyme-linked immunosorbent assay.
As for `Brc1ccc2[nH]c3c(c2c1)CCCC3Nc1ccc2c(c1)OCO2` (centres unmarked) [Compound 18, Benzo[1,3]dioxol-5-yl-(6-bromo-2,3,4,9-tetrahydro-1H-carbazol-1-yl)-amine], the EC50 was less than 10 nM. Still for that read-out and setting: the same measure for `CC1CCc2c(n(C)c3ccc(Br)cc23)C1=O` (centres unmarked) [Compound 53, 6-Bromo-2,9-dimethyl-2,3,4,9-tetrahydro-carbazol-1-one]: 40 to 200 nM; for `N#Cc1ccc(NC2CCCc3c2[nH]c2ccc(Br)cc32)cc1` (centres unmarked) [Compound 44, 4-(6-Bromo-2,3,4,9-tetrahydro-1H-carbazol-1-ylamino)-benzonitrile]: 40 to 200 nM. For the compound `Brc1ccc2[nH]c3c(c2c1)CCCC3Nc1ccc(Oc2ccccc2)cc1` (centres unmarked) [Compound 9, (6-Bromo-2,3,4,9-tetrahydro-1H-carbazol-1-yl)-(4-phenoxy-phenyl)-amine], the EC50 is less than 10 nM. Regarding `Brc1ccc2[nH]c3c(c2c1)CCCC3` [Compound 83, 6-Bromo-2,3,4,9-tetrahydro-1H-carbazole], the EC50 is more than 1000 nM. The same measure, in the same setting: for `CCOC(=O)C1CCCc2c1[nH]c1ccc(Br)cc21` (centres unmarked) [Compound 90, 6-Bromo-2,3,4,9-tetrahydro-1H-carbazole-1-carboxylic acid ethyl ester] the value was more than 1000 nM; for `O=C(NC1CCCc2c1[nH]c1ccc(Br)cc21)c1ccc(Cl)cc1` (centres unmarked) [Compound 134, N-(6-Bromo-2,3,4,9-tetrahydro-1H-carbazol-1-yl)-4-chloro-benzamide], 10 to 40 nM. As to `COc1ccc(NC2CCCc3c2[nH]c2ccc(Br)cc32)cc1` (centres unmarked) [Compound 4, (6-Bromo-2,3,4,9-tetrahydro-1H-carbazol-1-yl)-(4-methoxy-phenyl)-amine], the EC50 was less than 10 nM. Consider `O=C(O)c1ccn(C2CCCc3c2[nH]c2ccc(Br)cc32)c1` (centres unmarked) [Compound 113, 1-(6-Bromo-2,3,4,9-tetrahydro-1H-carbazol-1-yl)-1H-pyrrole-3-carboxylic acid], for which the EC50 is more than 1000 nM.

In the case of `NC1CCCc2c1[nH]c1cc(Br)ccc21` (centres unmarked) [Compound 94, 7-Bromo-2,3,4,9-tetrahydro-1H-carbazol-1-ylamine; compound with methane], the EC50 was more than 1000 nM. On the same count and under the same terms, for `O=C(NC1CCCc2c1[nH]c1ccc(Br)cc21)c1cnccn1` (centres unmarked) [Compound 74, Pyrazine-2-carboxylic acid (6-bromo-2,3,4,9-tetrahydro-1H-carbazol-1-yl)-amide] the value was less than 10 nM; for `CC(=O)Nc1ccc(NC2CCCc3c2[nH]c2ccc(Br)cc32)cc1` (centres unmarked) [Compound 57, N-[4-(6-Bromo-2,3,4,9-tetrahydro-1H-carbazol-1-ylamino)-phenyl]-acetamide], 200 to 1000 nM; for `Cn1c2c(c3cc(Br)ccc31)CCCC2n1cccc1` (centres unmarked) [Compound 117, 6-Bromo-9-methyl-1-pyrrol-1-yl-2,3,4,9-tetrahydro-1H-carbazole], more than 1000 nM. On the same count and under the same terms, for `COc1ccc(C(=O)NC2CCCc3c2[nH]c2ccc(Cl)cc32)cc1` (centres unmarked) [Compound 145, N-(6-Chloro-2,3,4,9-tetrahydro-1H-carbazol-1-yl)-4-methoxy-benzamide] the value was 10 to 40 nM. In the case of `COc1cccc(C2CCCc3c2[nH]c2ccc(Br)cc32)c1` (centres unmarked) [Compound 16, 6-Bromo-1-(3-methoxy-phenyl)-2,3,4,9-tetrahydro-1H-carbazole], the EC50 was less than 10 nM. Consider `Cc1nnsc1C(=O)NC1CCCc2c1[nH]c1ccc(Br)cc21` (centres unmarked) [Compound 103, 4-Methyl-[1,2,3]thiadiazole-5-carboxylic acid (6-bromo-2,3,4,9-tetrahydro-1H-carbazol-1-yl)-amide], for which the EC50 lay within 200 to 1000 nM.

Turning to `COc1ccc2[nH]c3c(c2c1)CCCC3n1cccc1` (centres unmarked) [Compound 56, 6-Methoxy-1-pyrrol-1-yl-2,3,4,9-tetrahydro-1H-carbazole], the EC50 was in the range of 40 to 200 nM. Same read-out and setting: for `Brc1ccc2[nH]c3c(c2c1)CCCC3Nc1ccc(-c2ccccc2)cc1` (centres unmarked) [Compound 28, Biphenyl-4-yl-(6-bromo-2,3,4,9-tetrahydro-1H-carbazol-1-yl)-amine] the value was 10 to 40 nM; for `FC(F)(F)Oc1ccc(NC2CCCc3c2[nH]c2ccc(Br)cc32)cc1` (centres unmarked) [Compound 19, (6-Bromo-2,3,4,9-tetrahydro-1H-carbazol-1-yl)-(4-trifluoromethoxy-phenyl)-amine], less than 10 nM.

For the compound `COc1ccc(NC2CCCc3c2[nH]c2ccc(Cl)cc32)cc1` (centres unmarked) [Compound 136, (6-Chloro-2,3,4,9-tetrahydro-1H-carbazol-1-yl)-(4-methoxy-phenyl)-amine], the EC50 was less than 10 nM.

For the compound `Fc1ccccc1NC1CCCc2c1[nH]c1ccc(Br)cc21` (centres unmarked) [Compound 17, (6-Bromo-2,3,4,9-tetrahydro-1H-carbazol-1-yl)-(2-fluoro-phenyl)-amine], the EC50 is less than 10 nM. For `Brc1ccc2[nH]c3c(c2c1)CCCC3c1nc2ccccc2[nH]1` (centres unmarked) [Compound 142, 1-(1H-Benzoimidazol-2-yl)-6-bromo-2,3,4,9-tetrahydro-1H-carbazole], the EC50 fell in the range of 10 to 40 nM.

As for `c1ccc2c3c([nH]c2c1)C(Nn1cccc1)CCC3` (centres unmarked) [Compound 101, Pyrrol-1-yl-(2,3,4,9-tetrahydro-1H-carbazol-1-yl)-amine], the EC50 was more than 1000 nM.

Consider `Clc1cccc(NC2CCCc3c2[nH]c2ccc(Br)cc32)c1` (centres unmarked) [Compound 20, (6-Bromo-2,3,4,9-tetrahydro-1H-carbol-1-yl)-(3-chloro-phenyl)-amine], for which the EC50 was less than 10 nM. The same measure, in the same setting: for `Brc1ccc2[nH]c3c(c2c1)CCCC3Nc1cnccn1` (centres unmarked) [Compound 31, (6-Bromo-2,3,4,9-tetrahydro-1H-carbazol-1-yl)-pyrazin-2-yl-amine] the value was 10 to 40 nM; for `Brc1ccc2[nH]c3c(c2c1)CCCC3c1ccccc1` (centres unmarked) [Compound 15, 6-Bromo-1-phenyl-2,3,4,9-tetrahydro-1H-carbazole], less than 10 nM; for `Brc1ccc2[nH]c3c(c2c1)CCCC3N1Cc2ccccc2C1` (centres unmarked) [Compound 7, 6-Bromo-1-(1,3-dihydro-isoindol-2-yl)-2,3,4,9-tetrahydro-1H-carbazole], less than 10 nM.

As for `OC1CCCc2c1oc1ccc(Br)cc21` (centres unmarked) [Compound 108, 8-Bromo-1,2,3,4-tetrahydro-dibenzofuran-4-ol], the EC50 was more than 1000 nM. Still for that read-out and setting: the same measure for `N#Cc1ccc(C(=O)NC2CCCc3c2[nH]c2ccc(Br)cc32)cc1` (centres unmarked) [Compound 132, N-(6-Bromo-2,3,4,9-tetrahydro-1H-carbazol-1-yl)-4-cyano-benzamide]: 10 to 40 nM; for `FC(F)(F)c1ccc2[nH]c3c(c2c1)CCCC3Nc1ccccc1` (centres unmarked) [Compound 14, Phenyl-(6-trifluoromethyl-2,3,4,9-tetrahydro-1H-carbazol-1-yl)-amine]: less than 10 nM. Take `O=C(O)C1CCCc2c1[nH]c1ccc(Br)cc21` (centres unmarked) [Compound 85, 6-Bromo-2,3,4,9-tetrahydro-1H-carbazole-1-carboxylic acid]: the EC50 was more than 1000 nM. Same read-out and setting: the same measure for `COc1cccc(CNC2CCCc3c2[nH]c2ccc(Br)cc32)c1OC` (centres unmarked) [Compound 55, (6-Bromo-2,3,4,9-tetrahydro-1H-carbazol-1-yl)-(2,3-dimethoxy-benzyl)-amine]: 40 to 200 nM; for `Brc1ccc2[nH]c3c(c2c1)CCc1cnn(-c2ccccc2)c1-3` [Compound 109, 7-Bromo-1-phenyl-1,4,5,10-tetrahydro-1,2,10-triaza-cyclopenta[a]fluorine]: more than 1000 nM.

Still in this assay, the particulars now being: Homo sapiens, HeLa, compounds 191-239, hypoxic conditions, VEGF protein by ELISA, read-out: ELISA Activity EC50.
In the case of `OC(COc1ccc(C2CCCc3c2[nH]c2ccc(Br)cc32)cc1)Cn1cncn1` (centres unmarked) [Compound 203], the EC50 lay in the range of 10 to 40 nM. Still for that read-out and setting: the same measure for `CC(=O)N1CCN(CC(O)COc2ccc(C3CCCc4c3[nH]c3ccc(Br)cc43)cc2)CC1` (centres unmarked) [Compound 197]: less than 10 nM; for `COCCN(CCCOc1ccc(C2CCCc3c2[nH]c2ccc(Br)cc32)cc1)CCOC` (centres unmarked) [Compound 205]: 10 to 40 nM; for `Brc1ccc2[nH]c3c(c2c1)CCCC3c1ccc(OCCCn2ccnc2)cc1` (centres unmarked) [Compound 211]: less than 10 nM. For `OCC(O)COc1ccc(C2CCCc3c2[nH]c2ccc(Br)cc32)cc1` (centres unmarked) [Compound 212], the EC50 was less than 10 nM.

Still in this assay, the particulars now being: Homo sapiens, HeLa, purchased compounds 156-188, hypoxic conditions, VEGF protein by ELISA, read-out: ELISA Activity.
Take `CC(=O)N1CCn2c3c(c4cc(C(=O)O)ccc42)CCCC31` (centres unmarked) [Compound 184, 3-Acetyl-2.3,3a,4,5,6-hexahydro-1H-pyrazino[3,2,1-jk]carbazole-8-carboxylic acid]: the EC50 is more than 1000 nM. Still for that read-out and setting: for `c1ccc(CN2CCn3c4c(c5ccccc53)CCCC42)cc1` (centres unmarked) [Compound 163, 3-Benzyl2,3,3a,4,5,6-hexahydro-1H-pyrazino[3,2,1-jk]carbazole] the value was more than 1000 nM.

Turning to `Brc1ccc2[nH]c3c(c2c1)CCCC3n1cccc1` (centres unmarked) [Compound 156, 6-Bromo-1-pyrrol-1-yl-2,3,4,9-tetrahydro-1H-carbazole], the EC50 is less than 10 nM. In the case of `Cc1ccc2[nH]c3c(c2c1)CCCC3NCC12CC3CC(CC(C3)C1)C2` (centres unmarked) [Compound 159, Adamantan-1-ylmethyl-(6-methyl-2,3,4,9-tetrahydro-1H-carbazol-1-yl)-amine], the EC50 is 200 to 1000 nM.

Regarding `Cc1ccc2c(c1)c1c3n2CCN(CC(C)O)C3CCC1` (centres unmarked) [Compound 176, 1-(8-Methyl-1,2,3a,4,5,6-hexahydro-pyrazino[3,2,1-jk]carbazoI-3-yl)-propan-2-ol], the EC50 was more than 1000 nM.

Still in this assay, the particulars now being: Homo sapiens, HeLa, purchased compounds 156-188, hypoxic conditions, VEGF protein by ELISA, read-out: ELISA EC50.
Take `CC(=O)N1CCn2c3c(c4cc(C(=O)O)ccc42)CCCC31` (centres unmarked) [Compound 184, 3-Acetyl-2.3,3a,4,5,6-hexahydro-1H-pyrazino[3,2,1-jk]carbazole-8-carboxylic acid]: the EC50 was more than 10000 nM. For `c1ccc(CN2CCn3c4c(c5ccccc53)CCCC42)cc1` (centres unmarked) [Compound 163, 3-Benzyl2,3,3a,4,5,6-hexahydro-1H-pyrazino[3,2,1-jk]carbazole], the EC50 stood at 1790 nM.

As to `Brc1ccc2[nH]c3c(c2c1)CCCC3n1cccc1` (centres unmarked) [Compound 156, 6-Bromo-1-pyrrol-1-yl-2,3,4,9-tetrahydro-1H-carbazole], the EC50 turned out to be 10 nM.

`Cc1ccc2[nH]c3c(c2c1)CCCC3NCC12CC3CC(CC(C3)C1)C2` (centres unmarked) [Compound 159, Adamantan-1-ylmethyl-(6-methyl-2,3,4,9-tetrahydro-1H-carbazol-1-yl)-amine]: the EC50 was 360 nM.

Consider `Cc1ccc2c(c1)c1c3n2CCN(CC(C)O)C3CCC1` (centres unmarked) [Compound 176, 1-(8-Methyl-1,2,3a,4,5,6-hexahydro-pyrazino[3,2,1-jk]carbazoI-3-yl)-propan-2-ol], for which the EC50 is more than 10000 nM.

Staying with this assay, now noted: purchased compounds 156-188, hypoxic conditions, VEGF protein by ELISA, hydrochloride, read-out: ELISA EC50.
Take `OCCNC1CCCc2c1[nH]c1ccc(Br)cc21` (centres unmarked) [Compound 186, 2-(6-Bromo-2,3,4,9-tetrahydro-1H-carbazol-1-ylamino)-ethanol hydrochloride]: the EC50 was determined as 12200 nM.

Still in this assay, the particulars now being: purchased compounds 156-188, hypoxic conditions, VEGF protein by ELISA, read-out: ELISA Activity.
As to `OCCNC1CCCc2c1[nH]c1ccc(Br)cc21` (centres unmarked) [Compound 186, 2-(6-Bromo-2,3,4,9-tetrahydro-1H-carbazol-1-ylamino)-ethanol hydrochloride], the EC50 was more than 1000 nM.
